In patent US12264156B2, “Compounds and pharmaceutical compositions thereof for the treatment of diseases” (GALAPAGOS NV, priority 2018, dated 2025):

System: lung fibrosis induced by radiation
Experiment: Radiation induced fibrosis mouse model
Format: in vivo
Settings: 60 mg/kg p.o. b.i.d.
Description: Pneumonitis and lung fibrosis are the major radiation-induced complications following thoracic radiotherapy, which is one of the major treatment of lung and breast cancers, lymphomas and hematopoietic transplant conditioning. The objective of this model was to evaluate the effect of a compound of the invention in lung fibrosis induced by radiation in mice (Favaudon et al. 2014), in particular on lung functionality (Flexivent) and fibrosis marker (Collagen I).
7 weeks old (18-22 gr) female C57BL/6J mice from Charles River (Écully, France), batch number S1672) were maintained on 12 h light/dark cycle at 22° C. with ad libitum access to tap water and food. […]
Body weight was recorded once a week, and on D23, lung function measurement under anesthesia was realized by Flexivent (Devos et al. 2017) for all groups (6 successful measurement per group) before sacrifice.
Lungs were collected and fixed in 4% formaldehyde for 24 h before embedding in paraffin. […] The anti-collagen I antibody was detected and amplified by ImmPress kit (Vector Laboratories, 3, Accent Park, Bakewell Road, Orton Southgate, Peterborough, PE2 6XS, United Kingdom, Cat #MP-7401). The immunostained sections were then scanned (Nanozoomer, Hamamatsu) before quantification by image analysis (CaloPix software, TRIBVN Healthcare). Data were expressed as percentage collagen I area per area of lung tissue. […]

**Q.** Which “ColI (collagen I) extent vs. vehicle group” value does the source give for `COc1cc(-c2cnc3cc(OCCN4CCOCC4)ccn23)cc2c1C(=O)N(CC(F)(F)F)CC2` [Cpd 88, 8-methoxy-6-[7-(2-morpholinoethoxy)imidazo [1,2-a]pyridin-3-yl]-2-(2,2,2-trifluoroethyl)-3,4-dihydroisoquinolin-1-one] here?
**A.** statistically significant reduction of ColI (collagen I) extent
